Test results published in PubChem BioAssay AID493225 (Broad Institute, 2011).
Values joined by “and” are separate entries in the source; they are usually repeats but may differ in a detail not shown here. Identical values can stand only once. Active and inactive are the calls of the source.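 How the source made its calls: active means fitted curve reaching 40% activation, where positive control equals 100, at or below the top valid dose; inconclusive means flat curve between 30 and 70% activation, or a poor fit; inactive means the rest, including activity in the opposite direction.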

These compounds were tested against Hypoxia-inducible factor 1-alpha (Homo sapiens) (UniProt Q16665) (assay: GFP-HIF1alpha nuclear accumulation inducers, dose response, orthogonal assay for HIF activator project, imaging, U2OS GFP-HIF1alpha, high content, dry powder, set 2 (AID 493225)). Conditions: U2OS GFP-HIF1alpha nuclear intensity imaging.
Hypoxia-inducible factor 1-alpha (Homo sapiens), sequence (Q16665 whole entry, looked up): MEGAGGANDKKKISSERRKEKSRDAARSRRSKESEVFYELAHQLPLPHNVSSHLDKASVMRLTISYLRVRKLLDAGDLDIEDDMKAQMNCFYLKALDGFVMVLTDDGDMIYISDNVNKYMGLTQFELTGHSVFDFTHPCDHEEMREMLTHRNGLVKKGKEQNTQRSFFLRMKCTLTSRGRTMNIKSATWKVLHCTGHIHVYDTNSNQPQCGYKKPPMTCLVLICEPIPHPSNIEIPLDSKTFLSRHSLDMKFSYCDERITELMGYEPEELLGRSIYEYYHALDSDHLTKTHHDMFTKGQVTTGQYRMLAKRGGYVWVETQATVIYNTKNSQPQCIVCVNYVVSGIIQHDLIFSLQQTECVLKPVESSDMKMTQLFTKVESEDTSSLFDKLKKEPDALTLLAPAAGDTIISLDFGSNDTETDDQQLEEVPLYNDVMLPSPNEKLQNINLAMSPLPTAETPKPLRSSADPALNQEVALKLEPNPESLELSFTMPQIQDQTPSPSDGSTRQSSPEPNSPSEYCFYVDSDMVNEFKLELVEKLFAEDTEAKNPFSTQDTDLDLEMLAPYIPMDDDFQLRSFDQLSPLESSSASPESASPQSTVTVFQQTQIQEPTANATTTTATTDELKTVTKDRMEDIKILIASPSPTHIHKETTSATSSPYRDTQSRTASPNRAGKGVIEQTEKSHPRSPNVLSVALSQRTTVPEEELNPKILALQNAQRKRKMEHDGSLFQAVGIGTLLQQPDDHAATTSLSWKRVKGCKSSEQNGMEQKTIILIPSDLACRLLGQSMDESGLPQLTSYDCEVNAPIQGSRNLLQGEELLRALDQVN

Structure (SMILES) | AC40
Cn1c(-c2ccccc2)cnc1Nc1nc(-c2ccccn2)nnc1-c1ccccc1 | > 13.5 µM (inactive)
OCC1CCN(c2nc(-c3ccccn3)nnc2-c2ccccc2)CC1 | 11 µM
CN(C)c1nc(-c2ccccn2)nnc1-c1ccccc1 | 10.4 µM
c1ccc(-c2nnc(-c3ccccn3)nc2NCc2cccnc2)cc1 | 4.19 µM
c1ccc(-c2nnc(-c3ccccn3)nc2NCCCN2CCOCC2)cc1 | 7.52 µM
CC(Nc1nc(-c2ccccn2)nnc1-c1ccccc1)c1ccccc1 (configuration not stated) | 1.1 µM
c1ccc(-c2nnc(-c3ccccn3)nc2NCc2ccccn2)cc1 | 5.02 µM
c1ccc(-c2nnc(-c3ccccn3)nc2NCCc2ccccn2)cc1 | 6.24 µM
c1ccc(-c2nnc(-c3ccccn3)nc2NCC2CCOCC2)cc1 | 7.28 µM
c1ccc(-c2nnc(-c3ccccn3)nc2Nc2nc3ccccc3s2)cc1 | 0.491 µM
O=C(NCCN1CCOCC1)c1cc(-c2ccccc2)on1 | 20.6 µM
c1ccc(CCNc2nc(-c3ccccn3)nnc2-c2ccccc2)cc1 | 4.89 µM
c1ccc(CNc2nc(-c3ccccn3)nnc2-c2ccccc2)cc1 | 1.93 µM
Cc1cccc(CNc2nc(-c3ccccn3)nnc2-c2ccccc2)c1 | 1.31 µM
Cc1cccc(Nc2nc(-c3ccccn3)nnc2-c2ccccc2)n1 | 2.72 µM
Oc1ccc(CNC2CCc3ccccc32)c2cccnc12 (configuration not stated) | 13.5 µM
c1ccc(-c2nnc(-c3ccccn3)nc2Nc2cnc3ccccc3n2)cc1 | 1.94 µM
c1ccc(-c2nnc(-c3ccccn3)nc2N2CCN(c3ccncc3)CC2)cc1 | 3.16 µM
O=C(NCCCCO)c1cc(-c2ccccc2)on1 | 1.89 µM
OCCCNc1nc(-c2ccccn2)nnc1-c1ccccc1 | 10.8 µM
CC(C)(C)c1ccc(CNc2nc(-c3ccccn3)nnc2-c2ccccc2)cc1 | 0.249 µM
CC1CN(Cc2ccc(O)c3ncccc23)CC(C)O1 (configuration not stated) | 20.8 µM

Structure (SMILES) | AC40
COc1ccccc1N1CCN(Cc2ccc(O)c3ncccc23)CC1 | 14.8 µM
O=C(NCCN1CCCCC1)c1cc(-c2ccccc2)on1 | > 38 µM (inactive)
O=C(NC1CCc2ccccc2C1)c1cc(-c2ccccc2)on1 (configuration not stated) | > 38 µM (inactive)
c1ccc(-c2ccc(CNc3nc(-c4ccccn4)nnc3-c3ccccc3)cc2)cc1 | 0.164 µM
Oc1ccc(CN2CCC3CCCCC3C2)c2cccnc12 (configuration not stated) | 5.14 µM
C=CCNc1nc(-c2ccccn2)nnc1-c1ccccc1 | 4.73 µM
O=C(NC1Cc2ccccc2C1)c1cc(-c2ccccc2)on1 | > 38 µM (inactive)
c1ccc(-c2nnc(-c3ccccn3)nc2NCCN2CCOCC2)cc1 | 8.15 µM
OCC1CCN(Cc2ccc(O)c3ncccc23)CC1 | 3.69 µM
Oc1ccc(CN2CCC(Cc3ccccc3)CC2)c2cccnc12 | 8.98 µM
CCCCNC(=O)c1cc(-c2ccccc2)on1 | 7.07 µM
c1ccc(-c2cnc(Nc3nc(-c4ccccn4)nnc3-c3ccccc3)s2)cc1 | 19.7 µM
Cc1ccc(CNc2nc(-c3ccccn3)nnc2-c2ccccc2)cc1C | 0.736 µM
Clc1cccc(CNc2nc(-c3ccccn3)nnc2-c2ccccc2)c1 | 0.74 µM
Cc1ccc(Nc2nc(-c3ccccn3)nnc2-c2ccccc2)cn1 | 6.61 µM
O=C(NCCCN1CCOCC1)c1cc(-c2ccccc2)on1 | 17.7 µM
c1ccc(-c2nnc(-c3ccccn3)nc2N2CCC(c3ccccc3)C2)cc1 (configuration not stated) | 0.689 µM
Cc1ccc(NC(=O)c2cc(-c3ccccc3)on2)cn1 | > 38 µM (inactive)
COc1cccc(CNc2nc(-c3ccccn3)nnc2-c2ccccc2)c1 | 1.57 µM
Oc1ccc(CN2CCc3ccccc3C2)c2cccnc12 | 4.51 µM and 18.1 µM
O=C(NCCCn1ccnc1)c1cc(-c2ccccc2)on1 | 6.13 µM
c1ccc(-c2nnc(-c3ccccn3)nc2NCC2CCCCC2)cc1 | 0.801 µM

Structure (SMILES) | AC40
c1ccc(-c2cccc(CNc3nc(-c4ccccn4)nnc3-c3ccccc3)c2)cc1 | 0.359 µM
Cc1ccc(CNc2nc(-c3ccccn3)nnc2-c2ccccc2)cc1 | 0.727 µM
Cc1ccccc1CNc1nc(-c2ccccn2)nnc1-c1ccccc1 | 0.628 µM
CC(C)(C)CCNc1nc(-c2ccccn2)nnc1-c1ccccc1 | 0.357 µM and 0.401 µM
CC(C)(C)CCNC(=O)c1cc(-c2ccccc2)on1 | > 38 µM (inactive)
Oc1ccc(CNC2Cc3ccccc3C2)c2cccnc12 | 5.59 µM
c1ccc(-c2nnc(-c3ccccn3)nc2N2CCC(N3CCOCC3)CC2)cc1 | 5.88 µM
CN1CCN(c2nc(-c3ccccn3)nnc2-c2ccccc2)CC1 | 5.53 µM
c1ccc(-c2nnc(-c3ccccn3)nc2NCC2CC2)cc1 | 2.07 µM
c1ccc(-c2csc(Nc3nc(-c4ccccn4)nnc3-c3ccccc3)n2)cc1 | 1.05 µM
O=C(Nc1nc2ccccc2s1)c1cc(-c2ccccc2)on1 | 34.9 µM
c1ccc(-c2nnc(-c3ccccn3)nc2N2CCC(C3CCCCC3)C2)cc1 (configuration not stated) | 0.265 µM
O=C(NCC1CC1)c1cc(-c2ccccc2)on1 | 15.4 µM
COc1ccc(CNc2nc(-c3ccccn3)nnc2-c2ccccc2)cc1 | 1.09 µM
c1ccc(-c2nnc(Nc3nc(-c4ccccn4)nnc3-c3ccccc3)s2)cc1 | 13.7 µM
C[C@@H](Nc1nc(-c2ccccn2)nnc1-c1ccccc1)c1ccccc1 | 1.5 µM
C[C@H](Nc1nc(-c2ccccn2)nnc1-c1ccccc1)C1CCCCC1 | 0.635 µM
N#CC1(c2ccccc2)CCN(Cc2ccc(O)c3ncccc23)CC1 | 19.8 µM
C[C@@H](Nc1nc(-c2ccccn2)nnc1-c1ccccc1)C1CCCCC1 | 0.456 µM
O=C(NCCCO)c1cc(-c2ccccc2)on1 | 6.49 µM
CC(C)(C)OC(=O)N1CCN(Cc2ccc(O)c3ncccc23)CC1 | 23.8 µM

Same assay, conditions: U2OS GFP-HIF1alpha nuclear intensity imaging; at 38 µM (top of the series)

Structure (SMILES) | activation
O=C(c1cc(-c2ccccc2)on1)N1CCC(CO)CC1 | -3.23% (inactive)
CN(C)CCNC(=O)c1cc(-c2ccccc2)on1 | 9.39% (inactive)
O=C(Nc1nnc(-c2ccccc2)s1)c1cc(-c2ccccc2)on1 | -3.81% (inactive)
O=C(Nc1cn2ccccc2n1)c1cc(-c2ccccc2)on1 | 9.51% (inactive)
O=C(Nc1nc(-c2ccccc2)cs1)c1cc(-c2ccccc2)on1 | 3.11% (inactive)
O=C(Nc1cnc2ccccc2c1)c1cc(-c2ccccc2)on1 | -3.02% (inactive)
O=C(c1cc(-c2ccccc2)on1)N1CCC(N2CCOCC2)CC1 | -1.88% (inactive)
Cc1ccccc1CNC(=O)c1cc(-c2ccccc2)on1 | 3.19% (inactive)
O=C(c1cc(-c2ccccc2)on1)N1CCC(N2CCCC2)CC1 | 3.26% (inactive)
CN1CCN(C(=O)c2cc(-c3ccccc3)on2)CC1 | -2.52% (inactive)
Cn1c(-c2ccccc2)cnc1NC(=O)c1cc(-c2ccccc2)on1 | 12.3% (inactive)
Cn1c(NC(=O)c2cc(-c3ccccc3)on2)nc2ccccc21 | -4.79% (inactive)
O=C(NCc1ccccc1)c1cc(-c2ccccc2)on1 | 5.64% (inactive)
O=C(Nc1ccc2ccccc2n1)c1cc(-c2ccccc2)on1 | -3.66% (inactive)
O=C(NCC1CCCCC1)c1cc(-c2ccccc2)on1 | 8.55% (inactive)
O=C(Nc1ncc2ccccc2n1)c1cc(-c2ccccc2)on1 | 10.3% (inactive)
Cc1cccc(NC(=O)c2cc(-c3ccccc3)on2)n1 | 0.577% (inactive)
O=C(c1cc(-c2ccccc2)on1)N1CCN(c2ccncc2)CC1 | -1.92% (inactive)
O=C(Nc1ncc(-c2ccccc2)o1)c1cc(-c2ccccc2)on1 | -4.43% (inactive)
Cc1cccc(CNC(=O)c2cc(-c3ccccc3)on2)c1 | 9.64% (inactive)
O=C(c1cc(-c2ccccc2)on1)N1CCc2cccnc21 | 3.77% (inactive)
Cc1ccc(CNC(=O)c2cc(-c3ccccc3)on2)cc1 | 7.41% (inactive)
